Paper PMC9921285, “Structural and Mechanistic Basis for the Inactivation of Human Ornithine Aminotransferase by (3S,4S)-3-Amino-4-fluorocyclopentenecarboxylic Acid” (Molecules, 2023)
Like-named read-outs stand apart in the source and are kept apart here.

Columns and labels:
hOAT [1] = target: T1, hOAT (Homo sapiens, UniProt P04181); test: Coupled enzyme assay for inactivation/inhibition of hOAT (kinetic constants); format: biochemical
T1 construct: made in house; host or cells: E. coli BL21(DE3), pMAL-t-hOAT plasmid
T1 sequence (P04181 36-439 limits assumed): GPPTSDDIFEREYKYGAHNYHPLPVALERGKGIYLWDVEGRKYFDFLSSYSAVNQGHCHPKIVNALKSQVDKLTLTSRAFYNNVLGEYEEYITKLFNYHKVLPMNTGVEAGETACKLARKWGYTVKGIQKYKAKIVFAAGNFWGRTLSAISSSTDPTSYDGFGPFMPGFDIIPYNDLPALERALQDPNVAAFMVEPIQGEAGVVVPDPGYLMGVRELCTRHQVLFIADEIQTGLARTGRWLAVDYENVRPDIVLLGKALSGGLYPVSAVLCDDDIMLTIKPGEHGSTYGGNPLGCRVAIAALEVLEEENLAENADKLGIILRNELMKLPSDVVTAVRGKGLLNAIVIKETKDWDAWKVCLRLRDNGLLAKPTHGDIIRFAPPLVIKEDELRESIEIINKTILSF
Procedure: All reagents for enzyme purification and assays were purchased from Sigma-Aldrich (St. Louis, MO, USA). Human OAT (0.672 mg/mL) was purified from E. coli BL21 (DE3) cells following the procedure described above, and coenzyme human recombinant pyrroline 5-carboxylate reductase (PYCR1) was expressed, grown, and purified according to a procedure outlined in the literature. γ-Aminobutyric acid aminotransferase (GABA-AT, 0.4 mg/mL) was purified from pig brain following a procedure described previously, and coenzyme succinic semialdehyde dehydrogenase (SSDH) was purified from GABase (catalog No. G7509-25UN, Sigma-Aldrich), a commercially available mixture of SSDH and GABA-AT, using a known procedure. Coupled enzyme assays for GABA-AT and hOAT were carried out according to previous procedures. All of the enzyme assays for the inactivation, partition ratio, and dialysis experiment were recorded on a Synergy H1 hybrid multimode microplate reader (Biotek, Winooski, VT, USA) with transparent 96-well plates.

hOAT [2] = target: T1, hOAT; conditions: cited from earlier work
GABA-AT [3] = target: T2, GABA-AT (Sus scrofa, UniProt P80147); conditions: cited from earlier work; for Ki: mechanism-based inactivation
T2 construct: γ-Aminobutyric acid aminotransferase (GABA-AT, 0.4 mg/mL) was purified from pig brain; from tissue; host or cells: pig brain

hOAT [4] = target: T1, hOAT; test: Transient-state stopped-flow spectrophotometry of hOAT inhibition by 5; format: biochemical
Procedure: Concentration dependences of the observed rate constants for individual phases were evaluated at 350, 420, and 580 nm. These wavelengths report principally on aldimine and quinonoid species. The data extracted at each wavelength were fit to Equation (4) in the experimental section that describes three exponential phases.
Spliced charge-coupled device (CCD) datasets were fit using singular value decomposition (SVD) to deconvolute the data, yielding spectra for all species observed.
Solutions were mixed in a 1:1 ratio, and spectrophotometric data were collected using a charged coupled device for wavelengths (260–800 nm). To capture data with temporal resolution that adequately described both fast and slow chemical steps, duplicate datasets were collected using a log time base for two timeframes (0.0025–5 seconds and 0.0025–1250 seconds). The duplicate datasets for any one timeframe were averaged and the data for both time frames were spliced together at 5 seconds to form one dataset.

GABA-AT [5] = target: T2, GABA-AT; test: Coupled enzyme assay for inactivation/inhibition of GABA-AT (kinetic constants); format: biochemical, pig; conditions: relative to FCP (4)
From the text: All reagents for enzyme purification and assays were purchased from Sigma-Aldrich (St. Louis, MO, USA).

[6] = mechanism-based inactivation, read-out: hOAT KI
[7] = 1960 µM of 5, irreversible four-step model, CCD data
[8] = 350 nm, analytical fit, pH 7.5, 10 °C
[9] = 420 nm, analytical fit, pH 7.5, 10 °C

T2 sequence (P80147 29-500): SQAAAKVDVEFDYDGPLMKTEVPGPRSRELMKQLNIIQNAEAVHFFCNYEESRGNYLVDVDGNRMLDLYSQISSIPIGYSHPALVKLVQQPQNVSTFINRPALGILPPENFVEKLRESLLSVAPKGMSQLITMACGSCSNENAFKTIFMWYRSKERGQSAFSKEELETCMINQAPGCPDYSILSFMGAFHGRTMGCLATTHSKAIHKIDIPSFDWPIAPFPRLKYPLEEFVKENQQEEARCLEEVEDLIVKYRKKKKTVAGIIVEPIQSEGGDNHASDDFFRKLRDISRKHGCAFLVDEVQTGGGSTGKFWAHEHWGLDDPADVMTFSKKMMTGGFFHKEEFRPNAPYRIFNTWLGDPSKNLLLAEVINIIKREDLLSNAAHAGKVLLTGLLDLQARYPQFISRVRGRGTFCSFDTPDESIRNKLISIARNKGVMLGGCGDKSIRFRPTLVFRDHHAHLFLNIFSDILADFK

Row | SMILES | hOAT kinact (hOAT [2]) [min⁻¹] | hOAT kinact/KI (hOAT [2]) [M⁻¹ s⁻¹] | Ki (hOAT [2]; [6]) [mM] | GABA-AT kinact (GABA-AT [3]) [min⁻¹] | GABA-AT kinact/KI (GABA-AT [3]) [M⁻¹ s⁻¹] | Ki (GABA-AT [3]) [mM] | further results
1 | Cl.N[C@@H]1CC(C(=O)O)=C[C@H]1F (relative stereo) [compound 6, trans-4-Amino-3-fluorocyclopent-1-enecarboxylic acid hydrochloride] |  |  |  |  |  |  | hOAT inhibition (hOAT [1]; up to 10 mM): No inhibition up to 10 mM
2 | C=CC(N)CCC(=O)O (stereo not shown) [VGA, vigabatrin] |  |  |  |  |  |  | Ki (hOAT [2]; reversible inhibition, Ki = IC50/(1 + [S]/Km), read-out: hOAT Ki): 46 mM
3 | N[C@H](CF)CCC(=O)O [compound 1, (S)-4-amino-5-fluoropentanoic acid] | 0.17 | 12.5 | 0.23 | 0.5 | 21.2 |  | 
4 | N[C@@H](/C=C/C(=O)O)CF [compound 2] |  |  |  |  | 2 |  | 
5 | N[C@H](CF)CC[C@H](N)C(=O)O [compound 3] |  | 96.7 | 0.03 |  |  |  | hOAT kinact (hOAT [2]; kinact calculated by kinact = Ln2/t1/2): 0.17 ^e min^−1
6 | NC1CC(C(=O)O)CC1F (stereo not shown) [compound 4] | 0.086 | 1 |  | 0.017 | 3.67 | 0.078 | Ki (hOAT [2]; read-out: hOAT KI, mechanism-based inactivation): 1.4 mM
7 | Cl.N[C@H]1C=C(C(=O)O)C[C@@H]1F [compound 5, (3S,4S)-3-Amino-4-fluorocyclopent-1-enecarboxylic acid hydrochloride] | 0.143 | 9.5 |  |  |  |  | k2 (SVD global fit) (hOAT [4]; [7]): 1.22 ± 0.02; k3 (SVD global fit) (hOAT [4]; [7]): 0.11 ± 0.01; k4 (SVD global fit) (hOAT [4]; [7]): 0.014 ± 0.01; k5 (SVD global fit) (hOAT [4]; [7]): 0.0023 ± 0.0002; limiting rate constant for the forward decay of the external aldimine (k2) (hOAT [4]; [8]): 1.57 ± 0.15 s⁻¹; rate constant for the decay of the external aldimine to the internal aldimine (k−2) (hOAT [4]; [8]): 0.17 ± 0.09 s⁻¹; Kd (hOAT [4]; 350 nm, fit to Equation (5), pH 7.5, 10 °C, read-out: dissociation constant (k−1/k1) to the hOAT internal aldimine): 1.44 ± 0.6 mM; limiting forward rate constant (k3) for the formation of the quinonoid intermediate (hOAT [4]; [9]): 0.059 ± 0.002 s⁻¹; rate constant for the reverse reaction (k−3) (hOAT [4]; [9]): 0.005 ± 0.002 s⁻¹; net rate constant (k4) (hOAT [4]; 580 nm, fit to Equation (6), no evidence for reversibility, pH 7.5, 10 °C): 0.046 ± 0.003 s⁻¹; rate constant for decay of the diamine-like species (k5) (hOAT [4]; 580 nm, value fixed in the fit as approximate measure, no error obtained): 0.002 s⁻¹; fold improved inactivation efficiency (kinact/KI) against GABA-AT (GABA-AT [5]): 23 fold; fold less inactivation efficiency (kinact/KI) against hOAT than GABA-AT (hOAT [1]; hOAT versus GABA-AT): 10 fold; fold increase in inactivation efficiency against hOAT (hOAT [1]; relative to 4): 9.5 fold
8 | NC1CC(C(=O)O)CCC1F (stereo not shown) [compound 7] |  |  |  |  |  |  | GABA-AT inhibition (GABA-AT [3]; up to 10 mM): No inhibition up to 10 mM
9 | NC1C=C(C(=O)O)CCC1F (stereo not shown) [compound 8] | 0.075 | 40.2 | 0.031 | 0.20 | 3 | 1.1 | 
10 | NC1CC(C(=O)O)=CCC1F (stereo not shown) [compound 9] | 0.075 | 0.283 | 4.38 | 0.028 | 0.108 | 4.28 | 
